In patent US20230146675A1, “PYRIMIDO[5,4-d]PYRIMIDINE DERIVATIVES AS ENT INHIBITORS FOR THE TREATMENT OF CANCERS, AND COMBINATION THEREOF WITH ADENOSINE RECEPTOR ANTAGONISTS” (ITEOS BELGIUM SA, priority 2020, published 2023):
pIC50: −log10 of the molar value.

Biological target: T1, human ENT1 (Homo sapiens, UniProt Q99808)
T1 sequence (Q99808 1-456): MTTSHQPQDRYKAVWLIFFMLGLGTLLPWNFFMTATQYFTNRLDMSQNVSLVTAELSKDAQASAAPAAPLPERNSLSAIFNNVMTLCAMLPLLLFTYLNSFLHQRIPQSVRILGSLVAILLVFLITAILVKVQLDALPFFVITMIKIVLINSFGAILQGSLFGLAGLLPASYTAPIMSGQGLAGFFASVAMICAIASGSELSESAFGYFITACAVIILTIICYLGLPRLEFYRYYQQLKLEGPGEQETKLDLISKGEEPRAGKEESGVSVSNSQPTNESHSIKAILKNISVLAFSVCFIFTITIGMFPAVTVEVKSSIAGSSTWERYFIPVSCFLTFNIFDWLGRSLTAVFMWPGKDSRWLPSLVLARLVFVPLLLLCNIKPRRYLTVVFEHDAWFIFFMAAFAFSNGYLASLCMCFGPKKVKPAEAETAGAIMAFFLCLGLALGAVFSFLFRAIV
Assay: ENT1 binding assay (competition with Sahenta-DY647 on JAR cells)
Design: JAR cells expressing ENT1 were bought from ATCC; host or cells: JAR cells
Conditions: binned IC50
In short: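 JAR cells were incubated with test compounds and the fluorescent ligand Sahenta-DY647 in competition. Plates were washed twice by centrifugation (4 min, 400 rcf, 4 °C). Binding potency was derived from the final fluorescence.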

Row | pIC50 | Structure (SMILES)
1 | 6.00 to 6.30 | COCCN(CCOC)c1nc(N2CCN(c3cnccn3)CC2)c2nc(N(CCOC)CCOC)nc(N3CCC(OC)CC3)c2n1 [Compound 120, N2,N2,N6,N6-tetrakis(2-methoxyethyl)-4-(4-methoxypiperidin-1-yl)-8-(4-(pyrazin-2-yl)piperazin-1-yl)pyrimido[5,4-d]pyrimidine-2,6-diamine]
2 | > 7.00 | COCCN(CCOC)c1nc(N2CCC(OC)CC2)c2nc(N(CCOC)CCOC)nc(NCc3cccc(OC)c3)c2n1 [Compound 48, N4-(3-methoxybenzyl)-N2,N2,N6,N6-tetrakis(2-methoxyethyl)-8-(4-methoxypiperidin-1-yl)pyrimido[5,4-d]pyrimidine-2,4,6-triamine]
3 | > 7.00 | CCOCCN(CCOCC)c1nc(N2CCN(C)C(=O)C2)c2nc(N(CCOCC)CCOCC)nc(N(C)Cc3ccccc3)c2n1 [Compound 232, 4-(8-(benzyl(methyl)amino)-2,6-bis(bis(2-ethoxyethyl)amino)pyrimido[5,4-d]pyrimidin-4-yl)-1-methylpiperazin-2-one]
4 | 6.00 to 6.30 | COCCN(CCOC)c1nc(N2CCN(C)C(=O)C2)c2nc(N3CCn4cncc4C3)nc(N3CCC(OC)CC3)c2n1 [Compound 298, 4-(2-(bis(2-methoxyethyl)amino)-6-(5,6-dihydroimidazo[1,5-a]pyrazin-7(8H)-yl)-8-(4-methoxypiperidin-1-yl)pyrimido[5,4-d]pyrimidin-4-yl)-1-methylpiperazin-2-one]
5 | 6.00 to 6.30 | COCCN(CCOC)c1nc(N2CCN(c3ncn(C)n3)CC2)c2nc(N(CCOC)CCOC)nc(N(C)Cc3cccc(S(C)(=O)=O)c3)c2n1 [Compound 246, N2,N2,N6,N6-tetrakis(2-methoxyethyl)-N4-methyl-8-(4-(1-methyl-1H-1,2,4-triazol-3-yl)piperazin-1-yl)-N4-(3-(methylsulfonyl)benzyl)pyrimido[5,4-d]pyrimidine-2,4,6-triamine]
6 | 6.00 to 6.30 | COCCN(CCOC)c1nc(N2CCC(OC)CC2)c2nc(N(CCOC)CCOC)nc(NCc3cscn3)c2n1 [Compound 66, N2,N2,N6,N6-tetrakis(2-methoxyethyl)-8-(4-methoxypiperidin-1-yl)-N4-(thiazol-4-ylmethyl)pyrimido[5,4-d]pyrimidine-2,4,6-triamine]
7 | > 7.00 | COCCN(CCOC)c1nc(N2CCn3cccc3C2)c2nc(N(CCOC)CCOC)nc(N3CCN(C)C(=O)C3)c2n1 [Compound 258, 4-(2,6-bis(bis(2-methoxyethyl)amino)-8-(3,4-dihydropyrrolo[1,2-a]pyrazin-2(1H)-yl)pyrimido[5,4-d]pyrimidin-4-yl)-1-methylpiperazin-2-one]
8 | 6.00 to 6.30 | COCCN(CCOC)c1nc(N2CCC(OC)CC2)c2nc(N(CCOC)CCOC)nc(N3CCCCC3)c2n1 [Compound 318, N2,N2,N6,N6-tetrakis(2-methoxyethyl)-4-(4-methoxypiperidin-1-yl)-8-(piperidin-1-yl)pyrimido[5,4-d]pyrimidine-2,6-diamine]
9 | > 7.00 | COCCN(CCOC)c1nc(N2CCC(OC)CC2)c2nc(N(CCOC)CCOC)nc(OCc3ccc(Cl)c(Cl)c3)c2n1 [Compound 154, 4-((3,4-dichlorobenzyl)oxy)-N2,N2,N6,N6-tetrakis(2-methoxyethyl)-8-(4-methoxypiperidin-1-yl)pyrimido[5,4-d]pyrimidine-2,6-diamine]
10 | 6.00 to 6.30 | COCCN(CCOC)c1nc(N2CCN(C)C(=O)C2)c2nc(N(CCOC)CCOC)nc(N(C)C)c2n1 [Compound 320, 4-(2,6-bis(bis(2-methoxyethyl)amino)-8-(dimethylamino)pyrimido[5,4-d]pyrimidin-4-yl)-1-methylpiperazin-2-one]
11 | > 7.00 | COCCN(CCOC)c1nc(N2CCC(OC)CC2)c2nc(N(CCOC)CCOC)nc(NCc3ccc(Cl)c(Cl)c3)c2n1 [Compound 137, N4-(3,4-dichlorobenzyl)-N2,N2,N6,N6-tetrakis(2-methoxyethyl)-8-(4-methoxypiperidin-1-yl)pyrimido[5,4-d]pyrimidine-2,4,6-triamine]
12 | 6.30 to 7.00 | COCCN(CCOC)c1nc(N2CC(F)C2)c2nc(N(CCOC)CCOC)nc(N3CCC(OC)CC3)c2n1 [Compound 99, 4-(3-fluoroazetidin-1-yl)-N2,N2,N6,N6-tetrakis(2-methoxyethyl)-8-(4-methoxypiperidin-1-yl)pyrimido[5,4-d]pyrimidine-2,6-diamine]
13 | 6.00 to 6.30 | COCCN(CCOC)c1nc(N2CCC(OC)CC2)c2nc(N(CCOC)CCOCCCN3CCN(C)CC3)nc(N3CCC(OC)CC3)c2n1 [Compound 16, N2,N2,N6-tris(2-methoxyethyl)-4,8-bis(4-methoxypiperidin-1-yl)-N6-(2-(3-(4-methylpiperazin-1-yl)propoxy)ethyl)pyrimido[5,4-d]pyrimidine-2,6-diamine]
14 | 6.00 to 6.30 | CCOCCCNc1nc(N(CCOC)CCOC)nc2c(N3CCC(OC)CC3)nc(N(CCOC)CCOC)nc12 [Compound 52, N4-(3-ethoxypropyl)-N2,N2,N6,N6-tetrakis(2-methoxyethyl)-8-(4-methoxypiperidin-1-yl)pyrimido[5,4-d]pyrimidine-2,4,6-triamine]
15 | 6.30 to 7.00 | COCCN(CCOC)c1nc(N2CCN(C)C(=O)C2)c2nc(N3CCn4cnnc4C3)nc(N3CCC(OC)CC3)c2n1 [Compound 299, 4-(2-(bis(2-methoxyethyl)amino)-6-(5,6-dihydro-[1,2,4]triazolo[4,3-a]pyrazin-7(8H)-yl)-8-(4-methoxypiperidin-1-yl)pyrimido[5,4-d]pyrimidin-4-yl)-1-methylpiperazin-2-one]
16 | 6.30 to 7.00 | COCCN(CCOC)c1nc(N2CCN(c3ncn(C)n3)CC2)c2nc(N(CCOC)CCOC)nc(N(C)Cc3cccc(C#N)c3)c2n1 [Compound 244, 3-(((2,6-bis(bis(2-methoxyethyl)amino)-8-(4-(1-methyl-1H-1,2,4-triazol-3-yl)piperazin-1-yl)pyrimido[5,4-d]pyrimidin-4-yl)(methyl)amino)methyl)benzonitrile]
17 | > 7.00 | COCCN(CCOC)c1nc(N2CCC(OC)CC2)c2nc(N(CCOC)CCOC)nc(NCc3ccc(Cl)c(C#N)c3)c2n1 [Compound 150, 5-(((2,6-bis(bis(2-methoxyethyl)amino)-8-(4-methoxypiperidin-1-yl)pyrimido[5,4-d]pyrimidin-4-yl)amino)methyl)-2-chlorobenzonitrile]
18 | 6.30 to 7.00 | COCCN(CCOC)c1nc(N2CCN(c3ncn(C)n3)CC2)c2nc(N(CCOC)CCOC)nc(N(C)Cc3cccc(S(N)(=O)=O)c3)c2n1 [Compound 248, 3-(((2,6-bis(bis(2-methoxyethyl)amino)-8-(4-(1-methyl-1H-1,2,4-triazol-3-yl)piperazin-1-yl)pyrimido[5,4-d]pyrimidin-4-yl)(methyl)amino)methyl)benzenesulfonamide]
19 | 6.30 to 7.00 | COCCN(CCOC)c1nc(N2CCC(F)(F)CC2)c2nc(N(CCO)CCO)nc(N3CCC(F)(F)CC3)c2n1 [Compound 19, 2,2′-((6-(bis(2-methoxyethyl)amino)-4,8-bis(4,4-difluoropiperidin-1-yl)pyrimido[5,4-d]pyrimidin-2-yl)azanediyl)diethanol]
20 | > 7.00 | COCCN(CCOC)c1nc(N2CCN(c3ncn(C)n3)CC2)c2nc(N(CCOC)CCOC)nc(NCc3cccc(F)c3)c2n1 [Compound 220, N4-(3-fluorobenzyl)-N2,N2,N6,N6-tetrakis(2-methoxyethyl)-8-(4-(1-methyl-1H-1,2,4-triazol-3-yl)piperazin-1-yl)pyrimido[5,4-d]pyrimidine-2,4,6-triamine]
21 | 6.30 to 7.00 | COCCN(CCOC)c1nc(N2CCC(OC)CC2)c2nc(N(CCOC)CCOC)nc(NCc3ccc(C)o3)c2n1 [Compound 161, N2,N2,N6,N6-tetrakis(2-methoxyethyl)-8-(4-methoxypiperidin-1-yl)-N4-((5-methylfuran-2-yl)methyl)pyrimido[5,4-d]pyrimidine-2,4,6-triamine]
22 | 6.30 to 7.00 | COCCN(CCOC)c1nc(N2CCC(OC)CC2)c2nc(N(CCOC)CCOC)nc(NCCOc3ccccc3)c2n1 [Compound 56, N2,N2,N6,N6-tetrakis(2-methoxyethyl)-8-(4-methoxypiperidin-1-yl)-N4-(2-phenoxyethyl)pyrimido[5,4-d]pyrimidine-2,4,6-triamine]
23 | 6.30 to 7.00 | COCCN(CCOC)c1nc(N2CCC(OC)CC2)c2nc(N(CCOC)CCOC)nc(N(C)Cc3ccccn3)c2n1 [Compound 73, N2,N2,N6,N6-tetrakis(2-methoxyethyl)-8-(4-methoxypiperidin-1-yl)-N4-methyl-N4-(pyridin-2-ylmethyl)pyrimido[5,4-d]pyrimidine-2,4,6-triamine]
24 | 6.30 to 7.00 | COCCN(CCOC)c1nc(N2CCC(OC)CC2)c2nc(N(CCOC)CCOC)nc(NCc3cccc(S(C)(=O)=O)c3)c2n1 [Compound 148, N2,N2,N6,N6-tetrakis(2-methoxyethyl)-8-(4-methoxypiperidin-1-yl)-N4-(3-(methylsulfonyl)benzyl)pyrimido[5,4-d]pyrimidine-2,4,6-triamine]
25 | > 7.00 | COCCN(CCOC)c1nc(N2CCN(c3ncn(C)n3)CC2)c2nc(N(CCOC)CCOC)nc(NCc3cccc(C#N)c3)c2n1 [Compound 224, 3-(((2,6-bis(bis(2-methoxyethyl)amino)-8-(4-(1-methyl-1H-1,2,4-triazol-3-yl)piperazin-1-yl)pyrimido[5,4-d]pyrimidin-4-yl)amino)methyl)benzonitrile]
